Results on one molecule are retold here after US20040248171A1, “Cancer monitoring by aberrant promotor methylation of the transcription factor genes PAX5 alpha PAX5 beta, novel loop helix loop protein, novel gene 2, and beta 3 genes” (Lovelace Respiratory Research Institute, priority 2001, published 2004).

Holding throughout (assay type): cell-based, human
In assay [1] the test system is PAX5 α gene expression. As to the kind of experiment: RT-PCR analysis for expression of the PAX5 α gene after DAC treatment. The settings on record: for PAX5 α transcript expression: 1 μM DAC, 72 h. The protocol: (§1) Reverse transcription-PCR (RT-PCR) was conducted on cDNA from three breast cancer cell lines (MCF7, MDA-MB 231, and T47D) and one lung cancer cell line (Calu6) to determine the relationship between methylation of the PAX5 α and β genes and transcription. […] Reference is made to FIG. 3A, showing an MSP analysis of breast and lung cancer cell lines. Bisulfite-modified DNA was amplified with stage-2 primers specific for methylated alleles. […] Expression of the PAX5 α and β genes was restored in non-expressing cell lines following DAC treatment. Expression of the β-actin gene was determined as a control for RNA integrity.
5-Aza-2′-deoxycytidine Treatment and RT-PCR. Re-expression studies were performed using three breast cancer cell lines (MCF7, MDA-MB-23 1, and T47D) and one lung cancer cell line (Calu6). Cell lines were treated for 3 days in culture media with 1 μM DAC (Sigma Chemical Co.). Total RNA was prepared using Trizol (Life Technologies, Inc.), and 3 μg aliquots were reverse-transcribed using the Superscript kit (Life Technologies, Inc.). The expression of the PAX5 α and β transcripts were determined by reverse transcription (RT)-PCR using the exon 1α forward primer (5′-[…]-3′) and the exon 1β forward primer (5′-[…]-3′) with an exon 2 reverse primer (5′-[…]-3′). β-actin was also amplified as a control for RNA integrity.
(§2) PCR amplification was performed at 94° C. for 10 min; then 35 cycles of 94° C. for 30 s, 64° C. for 30 s, and 72° C. for 30 s; and a 5-min final extension at 72° C. PCR products were analyzed on a 3% agarose gel containing ethidium bromide and visualized under UV illumination.

Assay [2] has as its system β-actin gene expression. Kind of assay: RT-PCR analysis for expression of the housekeeping gene β-actin after DAC treatment. The settings on record: MCF7, MDA-MB 231, T47D, Calu6 cell lines, 1 μM DAC, 72 h. The protocol:
as §1
(§3) 5-Aza-2′-deoxycytidine Treatment and RT-PCR. Re-expression studies were performed using three breast cancer cell lines (MCF7, MDA-MB-23 1, and T47D) and one lung cancer cell line (Calu6). […] The expression of the PAX5 α and β transcripts were determined by reverse transcription (RT)-PCR using the exon 1α forward primer (5′-[…]-3′) and the exon 1β forward primer (5′-[…]-3′) with an exon 2 reverse primer (5′-[…]-3′). β-actin was also amplified as a control for RNA integrity.
as §2

Assay [3] has as its system PAX5 β gene expression. Kind of assay: RT-PCR analysis for expression of the PAX5 β gene after DAC treatment. The method, then:
as §1, §3, §2

[4] abbreviates: non-expressing breast and lung cancer cell lines, 1 μM DAC for 72 h (FIG. 3B).

Consider `Nc1ncn([C@H]2C[C@H](O)[C@@H](CO)O2)c(=O)n1` [DAC, 5-Aza-2′-deoxycytidine], for which the figures for the “PAX5 α transcript expression” value in assay [1] (Calu6 lung cancer cell line), in assay [1] (MDA-MB231 breast cancer cell line) and in assay [1] (T47D breast cancer cell line) were “increased expression”, “restored expression” and “restored expression”, respectively. Also, the “Expression of the PAX5 α gene” value in assay [1] (setting [4]) is reported as “restored”. Also, the “expression of the housekeeping gene β-actin” value in assay [2] is given as “did not affect”. Also, the “Expression of the PAX5 β gene” value in assay [3] (setting [4]) is recorded as “restored”. In assay [3] (the other three cell lines (MCF7, MDA-MB 231, Calu6), 1 μM DAC, 72 h), the “PAX5 β transcript expression” value is listed as “restored expression”.
